The test system of data set [1] is locally advanced pancreatic cancer. The following applies: 126 patients with locally advanced pancreatic cancer; cited from earlier work.
Data set [2] deals with pancreatic cancer. The settings on record: in vivo; cited from earlier work.
Data set [3] in a line: Phase I study of Nab-paclitaxel with vandetanib: MTD, DLT, adverse events. The class given is in vivo, human. The text has this:
Patients were randomized to one of two cohorts. […] A 3+3 design was used.

Data set [4] concerns gemcitabine-resistant pancreatic cancer. The settings on record: second-line, small studies; cited from earlier work.

Consider `O=c1[nH]cc(F)c(=O)[nH]1` [5-FU, 5-fluororuracil], for which, in data set [1], the median overall survival was 4.2 months and the “median time to disease progression” value is 0.9 months.

Take `Nc1ccn([C@@H]2O[C@H](CO)[C@@H](O)C2(F)F)c(=O)n1` [gemcitabine]: in data set [2], the median overall survival was 6.0 months and the “median progression free survival” value was 3.5 months. Besides, in data set [1], the median overall survival is listed as 5.7 months and the “median time to disease progression” value is 2.1 months.

Turning to `COc1cc2c(Nc3ccc(Br)cc3F)ncnc2cc1OCC1CCN(C)CC1` [vandetanib], the MTD in data set [3] (cohort A: daily, combined with 100 mg/m^2 Nab-paclitaxel weekly for three out of four weeks) was determined as 300 mg; in data set [3] (cohort B: daily, in combination with 260 mg/m^2 Nab-paclitaxel every three weeks), 300 mg.

Regarding `CC(=O)O[C@H]1C(=O)[C@@]2(C)[C@H]([C@H](OC(=O)c3ccccc3)[C@]3(O)C[C@H](OC(=O)[C@H](O)[C@@H](NC(=O)c4ccccc4)c4ccccc4)C(C)=C1C3(C)C)[C@]1(OC(C)=O)CO[C@@H]1C[C@@H]2O` [paclitaxel], in data set [4], the median overall survival was 17.5 weeks and the response rate was 6%.
